Measurements reported in patent publication US20240335431A1, “1-H-PYRROLO[2,3-c]PYRIDINE COMPOUNDS” (Acerta Pharma B.V., priority 2023, published 2024).
Read-outs that look alike come from different tables or passages of the source.

What was measured:
hERG = hERG (Homo sapiens (Human), UniProt Q12809); experiment: hERG assay 1 (standard), SyncroPatch 384PE; type: cell-based; conditions: CHO cells, room temperature, up to 40 uM
Outline: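 Automated patch clamp on hERG-expressing CHO-K1 cells at room temperature, +60/−40 mV protocol every 15 s. Six-point cumulative concentrations 139 nM to 40 uM (0.33% DMSO final); IC50 from one-site fit of % inhibition. Wells required ≥30 MegaOhm seal, current >0.2 nA, Z prime >0.4.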

[1] = Human hepatocyte intrinsic clearance assay; type: in vitro ADME; conditions: human hepatocytes
Procedure: Human hepatocytes (LiverPool™ 10-Donor Human hepatocytes (Mixed Gender, PEG-free, Product No. S01205, 5 million cells per vial) were obtained from BioreclamationIVT. DMSO was sourced from Solarbio S&T Co Ltd. Leibovitz's L-15 Medium, Williams' Medium E, GlutaMAX™-1 (100×), HEPES, DPBS (10×) and Human Recombinant Insulin Solution were purchased from Gibco. Isotonic Percoll Solution was purchased from GE Healthcare. Fetal Bovine Serum (FBS) was purchased from Corning.
10 mM dexamethasone stock solution was prepared by dissolving 3.9 mg dexamethasone in 1 mL of DMSO. An Isotonic Percoll Solution was prepared by dilution of Percoll with DPBS (10×). 15 mL of Isotonic Percoll Solution (90% Percoll/10% DPBS) was added to 31.25 mL William's E medium containing 500 mL of GlutaMAX™-1 (100×), 750 mL of 1M HEPES, 2.5 mL of 5% FBS, 50 mL of 4 mg/mL Human Recombinant Insulin Solution and 5 mL of the 10 mM dexamethasone stock.
2 mL of 10 mM DMSO stock solutions of test compound were added to 198 mL acetonitrile to produce 100 mmol/L concentration.
The human hepatocyte vial was thawed at 37° C. in a waterbath. Once thawed, contents were poured into a 50 mL conical tube and centrifuged at 100 g for 10 minutes. The thawing medium was poured out and 4 mL L-15 medium was added. The tube was gently shaken to resuspend the hepatocytes and cells were counted with an appropriate cell counter. 247.5 mL of the hepatocyte suspension was transferred into each well of the plate and pre-warmed at 600 rpm and 50° C. to enable the temperature to rise to 37° C.
2.5 mL of the […] test compound solution was added to initiate the reaction (final concentration […]) and incubated at 37° C. with shaking at 900 rpm. At 0.5, 5, 15, 30, 45, 60, 80, 100 and 120 minutes, 20 mL was taken into a quenching solution of acetonitrile containing internal standards. The mix was vortexed at 800 rpm for 2 minutes followed by centrifugation for 20 minutes at 4000 rpm at 4° C. 40 mL of supernatant was transferred into a 96 well analysis plate containing 160 mL of water in each well. The analysis plate was shaken at 100 rpm for 2 minutes prior to analysis by LC-MS/MS.
Peak areas were determined from extracted ion chromatograms. Percent parent remaining was calculated from peak area of test compound. The slope value, k, was determined by linear regression of the natural logarithm of percent parent remaining versus incubation time.
The in vitro intrinsic clearance (in vitro CLint in mL/min/10^6 cells) was determined from the slope value using the following equation: […]
where V is the incubation volume (0.25 mL) and N is the number of hepatocytes per well (0.25×10^6 cells).

MV4;11 cells = experiment: Proliferation assay, MV4;11 (CellTiter-Glo, 7 days); type: cell-based, human; conditions: read-out: MV-4-11 IC50
Outline: (§1)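 Cells were seeded at line-specific low densities for linear growth, exposed to 3.16-fold serial compound dilutions at 0.1% DMSO, and incubated 7 days at 37 °C, 5% CO2. Viability was read by CellTiter-Glo 2.0 luminescence; IC50 came from one-site fits of % inhibition, normalized between DMSO-treated cells (100%) and a day-0 plate (0%).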

HEL cells = experiment: Proliferation assay, HEL control cell line (CellTiter-Glo, 7 days); type: cell-based, human
Outline: as §1

Sequence of hERG (Q12809 whole entry): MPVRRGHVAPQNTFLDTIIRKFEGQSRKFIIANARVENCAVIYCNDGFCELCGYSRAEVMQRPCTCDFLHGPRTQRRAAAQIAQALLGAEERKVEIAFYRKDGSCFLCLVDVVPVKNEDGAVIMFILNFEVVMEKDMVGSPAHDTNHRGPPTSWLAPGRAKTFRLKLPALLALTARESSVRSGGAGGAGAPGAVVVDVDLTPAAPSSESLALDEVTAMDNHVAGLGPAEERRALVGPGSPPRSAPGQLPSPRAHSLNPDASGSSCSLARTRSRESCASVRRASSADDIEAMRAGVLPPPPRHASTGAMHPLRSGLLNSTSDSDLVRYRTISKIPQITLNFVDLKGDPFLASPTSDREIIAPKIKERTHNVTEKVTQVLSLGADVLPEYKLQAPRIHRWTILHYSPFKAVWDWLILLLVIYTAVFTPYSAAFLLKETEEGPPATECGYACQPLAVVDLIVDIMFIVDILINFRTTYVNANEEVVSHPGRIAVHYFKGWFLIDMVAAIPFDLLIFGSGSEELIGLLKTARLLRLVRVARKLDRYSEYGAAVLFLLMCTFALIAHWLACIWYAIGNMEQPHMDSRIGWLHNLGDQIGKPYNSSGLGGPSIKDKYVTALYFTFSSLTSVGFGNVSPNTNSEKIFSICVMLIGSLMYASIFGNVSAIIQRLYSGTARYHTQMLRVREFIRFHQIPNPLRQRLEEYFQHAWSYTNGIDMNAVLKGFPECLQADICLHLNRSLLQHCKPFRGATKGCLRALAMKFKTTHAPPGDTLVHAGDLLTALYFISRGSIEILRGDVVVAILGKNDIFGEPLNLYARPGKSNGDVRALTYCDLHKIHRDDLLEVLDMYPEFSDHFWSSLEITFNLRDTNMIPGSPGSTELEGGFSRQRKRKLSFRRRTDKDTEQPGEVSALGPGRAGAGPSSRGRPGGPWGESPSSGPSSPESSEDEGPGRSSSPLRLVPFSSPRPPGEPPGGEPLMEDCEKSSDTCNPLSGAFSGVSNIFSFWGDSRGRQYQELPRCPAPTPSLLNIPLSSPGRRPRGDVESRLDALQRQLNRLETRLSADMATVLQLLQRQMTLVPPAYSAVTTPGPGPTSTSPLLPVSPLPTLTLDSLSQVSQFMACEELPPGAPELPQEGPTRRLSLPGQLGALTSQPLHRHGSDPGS

Row | SMILES | IC50 (hERG) | HH CLint [1] | IC50 (MV4;11 cells; Homo sapiens, MV4-11, 168 h) | IC50 (HEL cells; Homo sapiens, HEL, 168 h) | IC50 (HEL cells) | IC50 (MV4;11 cells)
1 | CC(C)N(C(=O)c1cc(F)ccc1-n1cc(C(=O)C2CCN(C(=O)[C@H]3N[C@H]4C[C@@H]3[C@@H](F)C4)CC2)c2ccncc21)C(C)C [Example 22, 5-Fluoro-2-(3-(1-((1S,3S,4S,5S)-5-fluoro-2-azabicyclo[2.2.1]heptane-3-carbonyl)piperidine-4-carbonyl)-1H-pyrrolo[2,3-c]pyridin-1-yl)-N,N-diisopropylbenzamide] | > 40 µM | <1.7 μl/min/1E6 | 0.017 µM | > 10 µM |  | 
2 | CCN(C(=O)c1cc(F)ccc1-n1c(C)c(C(=O)C2CCN(C(=O)[C@@H]3CCC(C)(C)N3)CC2)c2ccncc21)C(C)C (single isomer, unassigned) [Example 50-2] | > 40 µM | <1.0 μl/min/1E6 | 0.039 µM |  | > 10 µM | 
3 | CC(C)c1ncccc1-c1cc(F)ccc1-n1cc(C(=O)C2CN(C(=O)[C@H]3N[C@@H]4CC[C@H]3C4)C2)c2ccncc21 [Example 10, (1-((1R,3S,4S)-2-Azabicyclo[2.2.1]heptane-3-carbonyl)azetidin-3-yl)(1-(4-fluoro-2-(2-isopropylpyridin-3-yl)phenyl)-1H-pyrrolo[2,3-c]pyridin-3-yl)methanone] | > 40 µM | <2.2 μl/min/1E6 | 0.024 µM | > 10 µM |  | 
4 | CC(C)N(C(=O)c1cc(F)ccc1-n1cc(C(=O)[C@H]2CCN(C[C@H]3CC[C@H](NS(C)(=O)=O)CC3)C2)c2ccncc21)C(C)C [Example 1, 5-Fluoro-N,N-diisopropyl-2-(3-((S)-1-(((1r,4S)-4-(methylsulfonamido)-cyclohexyl)methyl)pyrrolidine-3-carbonyl)-1H-pyrrolo[2,3-c]pyridin-1-yl)benzamide] | 9.9 µM | 2.6 μl/min/1E6 | 0.166 µM | > 10 µM |  | 
5 | CC(C)N(C(=O)c1cc(F)ccc1-n1cc(C(=O)[C@H]2CCN(C(=O)[C@H]3N[C@@H]4CC[C@H]3C4)C2)c2ccncc21)C(C)C [Example 2, 2-(3-((S)-1-((1R,3S,4S)-2-Azabicyclo[2.2.1]heptane-3-carbonyl)pyrrolidine-3-carbonyl)-1H-pyrrolo[2,3-c]pyridin-1-yl)-5-fluoro-N,N-diisopropylbenzamide] | > 40 µM | <1.0 μl/min/1E6 | 0.097 µM | > 10 µM |  | 
6 | CC(C)N(C(=O)c1cc(F)ccc1-n1cc(C(=O)C2CCN(C(=O)[C@H]3N[C@@H]4CC[C@H]3C4)CC2)c2ccncc21)C(C)C [Example 16, 2-(3-(1-((1R,3S,4S)-2-Azabicyclo[2.2.1]heptane-3-carbonyl)piperidine-4-carbonyl)-1H-pyrrolo[2,3-c]pyridin-1-yl)-5-fluoro-N,N-diisopropylbenzamide] | > 40 µM | <1.0 μl/min/1E6 | 0.029 µM | > 10 µM |  | 
7 | CC(C)N(C(=O)c1cc(F)ccc1-n1cc(C(=O)C2CCN(C(=O)[C@H]3NC[C@@H]4CC[C@@H]43)CC2)c2ccncc21)C(C)C (relative stereo) [Example 25, rel-2-(3-(1-((1R,2R,5S)-3-Azabicyclo[3.2.0]heptane-2-carbonyl)piperidine-4-carbonyl)-1H-pyrrolo[2,3-c]pyridin-1-yl)-5-fluoro-N,N-diisopropylbenzamide] | > 40 µM | 3.6 μl/min/1E6 | 0.024 µM | > 10 µM |  | 
8 | CCN(C(=O)c1cc(F)ccc1-n1c(C)c(C(=O)C2CCN(C(=O)[C@H]3NC[C@@H]4C[C@@H]43)CC2)c2ccncc21)C(C)C (single isomer, unassigned) [Example 48-1] | > 40 µM | <1.0 μl/min/1E6 |  |  | > 10 µM | 
9 | Cc1c(C(=O)C2CCN(C(=O)[C@@H]3CCC(C)(C)N3)CC2)c2ccncc2n1-c1ccc(F)cc1C(=O)N(C(C)C)C(C)C (single isomer, unassigned) [Example 56-1] | > 40 µM | 6.9 μl/min/1E6 |  | > 10 µM |  | 
10 | CCN(C(=O)c1cc(F)ccc1-n1cc(C(=O)C2CN(C(=O)[C@H]3NC4CCC3CC4)C2)c2ccncc21)C(C)C [Example 9, (S)-2-(3-(1-(2-Azabicyclo[2.2.2]octane-3-carbonyl)azetidine-3-carbonyl)-1H-pyrrolo[2,3-c]pyridin-1-yl)-N-ethyl-5-fluoro-N-isopropylbenzamide] |  | 3.8 μl/min/1E6 | 0.1 µM | > 10 µM |  | 
11 | CC(C)c1ccncc1-c1cc(F)ccc1-n1cc(C(=O)C2CCN(C(=O)[C@H]3N[C@@H]4CC[C@H]3C4)CC2)c2ccncc21 [Example 41, (1-((1R,3S,4S)-2-Azabicyclo[2.2.1]heptane-3-carbonyl)piperidin-4-yl)(1-(4-fluoro-2-(4-isopropylpyridin-3-yl)phenyl)-1H-pyrrolo[2,3-c]pyridin-3-yl)methanone] | > 40 µM | 1.7 μl/min/1E6 |  | > 10 µM |  | 
12 | CC(C)N(C(=O)c1cc(F)ccc1-n1cc(C(=O)C2CCN(C(=O)[C@H]3N[C@@H]4CC[C@H]3C4)CC2)c2c(F)cncc21)C(C)C.O=CO [Example 44, 2-(3-(1-((1R,3S,4S)-2-Azabicyclo[2.2.1]heptane-3-carbonyl)piperidine-4-carbonyl)-4-fluoro-1H-pyrrolo[2,3-c]pyridin-1-yl)-5-fluoro-N,N-diisopropylbenzamide 1·formic acid] | > 40 µM |  | 0.065 µM | > 10 µM |  | 
13 | CC(C)(F)c1ncccc1-c1cc(F)ccc1-n1cc(C(=O)C2CN(C(=O)[C@H]3N[C@@H]4CC[C@H]3C4)C2)c2ccncc21 [Example 13, (1-((1R,3S,4S)-2-Azabicyclo[2.2.1]heptane-3-carbonyl)azetidin-3-yl)(1-(4-fluoro-2-(2-(2-fluoropropan-2-yl)pyridin-3-yl)phenyl)-1H-pyrrolo[2,3-c]pyridin-3-yl)methanone] | 35.8 µM |  | 0.034 µM | > 10 µM |  | 
14 | CC(C)c1ncsc1-c1cc(F)ccc1-n1cc(C(=O)C2CN(C(=O)[C@H]3N[C@@H]4CC[C@H]3C4)C2)c2ccncc21.O=CO [Example 12, (1-((1R,3S,4S)-2-Azabicyclo[2.2.1]heptane-3-carbonyl)azetidin-3-yl)(1-(4-fluoro-2-(4-isopropylthiazol-5-yl)phenyl)-1H-pyrrolo[2,3-c]pyridin-3-yl)methanone 1·formic acid] | > 40 µM | 3.9 μl/min/1E6 |  | > 10 µM |  | 
15 | CCN(C(=O)c1cc(F)ccc1-n1cc(C(=O)C2CCN(C(=O)[C@H]3N[C@H]4C[C@@H]3[C@@H](F)C4)CC2)c2ccncc21)C(C)C [Example 30, N-Ethyl-5-fluoro-2-(3-(1-((1S,3S,4S,5S)-5-fluoro-2-azabicyclo[2.2.1]heptane-3-carbonyl)piperidine-4-carbonyl)-1H-pyrrolo[2,3-c]pyridin-1-yl)-N-isopropylbenzamide] | > 40 µM |  | 0.033 µM | > 10 µM |  | 
16 | CCN(C(=O)c1cc(F)ccc1-n1c(C)c(C(=O)[C@@H]2CCN(C(=O)[C@@H]3CCC4(CC4)N3)[C@@H](C)C2)c2ccncc21)C(C)C (single isomer, unassigned) [Example 52-1, N-Ethyl-5-fluoro-N-isopropyl-2-(2-methyl-3-((2R*,4S*)-2-methyl-1-((S)-4-azaspiro[2.4]heptane-5-carbonyl)piperidine-4-carbonyl)-1H-pyrrolo[2,3-c]pyridin-1-yl)benzamide] |  | 4.1 μl/min/1E6 |  |  |  | 0.022 µM
